Source: patent US10597388B2, “Pyridazinone herbicides” (FMC CORPORATION, priority 2014, dated 2020)
Like-named read-outs stand apart in the source and are kept apart here.

Experiments:
Type in all cases: in vivo
[1] = test system: barnyardgrass (Echinochloa crus-galli); assay: Test A greenhouse herbicide test, pre- and postemergence; conditions: 1000 g ai/ha, 0 to 100 scale; for pest or weed control at 1000 g/ha: Echinochloa crus-galli, 240 h
Summary of the method: (§1)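 Seeds sown in loam–sand blend got a preemergence directed soil spray of compound in non-phytotoxic solvent with surfactant. Postemergence treatment was given at 2–10 cm, one- to two-leaf stage. After ~10 d in greenhouse, injury was rated visually vs untreated controls, 0 (no effect) to 100 (complete control).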

[2] = test system: corn (Zea mays); assay: as above; conditions: 1000 g ai/ha, 0 to 100 scale
Summary of the method: as §1

[3] = test system: crabgrass, large (large crabgrass, Digitaria sanguinalis); assay: as above; conditions: 1000 g ai/ha, 0 to 100 scale
Summary of the method: as §1

[4] = test system: foxtail, giant (giant foxtail, Setaria faberii); assay: as above; conditions: 1000 g ai/ha, 0 to 100 scale; for pest or weed control at 1000 g/ha: Setaria faberi, 240 h
Summary of the method: as §1

[5] = test system: momingglory (Ipomoea spp.); assay: as above; conditions: 1000 g ai/ha, 0 to 100 scale; for pest or weed control at 1000 g/ha: Ipomoea, 240 h
Summary of the method: as §1

[6] = test system: pigweed (Amaranthus retroflexus); assay: as above; conditions: 1000 g ai/ha, 0 to 100 scale
Summary of the method: as §1

[7] = test system: velvetleaf (Abutilon theophrasti); assay: as above; conditions: Preemergence, 1000 g ai/ha, 0 to 100 scale, 0 no effect, 100 complete control
Summary of the method: as §1

[8] = test system: wheat (Triticum aestivum); assay: as above; conditions: 1000 g ai/ha, 0 to 100 scale; for plant injury at 1000 g/ha: Triticum aestivum, 240 h
Summary of the method: as §1

[9] = test system: barnyardgrass (Echinochloa crus-galli); assay: Test B flooded paddy test; conditions: 250 g ai/ha, Flood; visual rating on scale of 0 to 100 where 0 is no effect and 100 is complete control; 13 to 15 d after treatment
Summary of the method: (§2)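 Plants at the 2-leaf stage were flooded to 3 cm above soil, and test compounds were applied directly into the paddy water, which was held at that depth throughout. After 13 to 15 d in a greenhouse, injury was rated visually against untreated controls on a 0–100 scale (0 no effect, 100 complete control).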

[10] = test system: ducksalad (Heteranthera limosa); assay: Test B flooded paddy test; conditions: 250 g ai/ha, Flood; visual rating on scale of 0 to 100 where 0 is no effect and 100 is complete control; 13 to 15 d after treatment
Summary of the method: as §2

[11] = test system: rice (Oryza sativa); assay: Test B flooded paddy test; conditions: 250 g ai/ha, Flood; visual rating on scale of 0 to 100 where 0 is no effect and 100 is complete control; 13 to 15 d after treatment
Summary of the method: as §2

[12] = test system: sedge, umbrella (small-flower umbrella sedge, Cyperus difformis); assay: Test B flooded paddy test; conditions: 250 g ai/ha, Flood; visual rating on scale of 0 to 100 where 0 is no effect and 100 is complete control; 13 to 15 d after treatment
Summary of the method: as §2

[13] = Postemergence, 0 is no effect, 100 is complete control
[14] = Preemergence, 0 no effect, 100 complete control

For “5-hydroxy-4-(5-methoxy-3-benzofuranyl)-2,6-dimethyl-3(2H)-pyridazinone [Compound 5]”, the “Barnyardgrass plant response rating” value [1, 13] was 40, the “Plant response rating, Barnyardgrass” value [1, 14] was 90 and the “Corn plant response rating” value [2, 13] was 0. The “Plant response rating, Corn” value [2, 14] was 0, the “Crabgrass, Large plant response rating” value [3, 13] was 80 and the “Plant response rating, Crabgrass, Large” value [3, 14] was 90. The “Foxtail, Giant plant response rating” value [4, 13] was 80, the “Plant response rating, Foxtail, Giant” value [4, 14] was 80 and the “Morningglory plant response rating” value [5, 13] was 70. For the same compound, the “Plant response rating, Morningglory” value [5, 14] was 0, the “Pigweed plant response rating” value [6, 13] was 10 and the “Plant response rating, Pigweed” value [6, 14] was 0. The “Plant response rating, Velvetleaf” value [7] was 0, the “Wheat plant response rating” value [8, 13] was 0 and the “Plant response rating, Wheat” value [8, 14] was 0. For the same compound, the “Plant response rating, Barnyardgrass” value [9] was 0, the “Plant response rating, Ducksalad” value [10] was 45 and the “Plant response rating, Rice” value [11] was 0. The “Plant response rating, Sedge, Umbrella” value [12] was 75.

In the case of Cc1nn(C)c(=O)c(-c2c(C)oc3ccc(Cl)cc23)c1O [Compound 6, 4-(5-chloro-2-methyl-3-benzofuranyl)-5-hydroxy-2,6-dimethyl-3 (2H)-pyridazinone], the pest or weed control at 1000 g/ha ([1]; post-emergence, Postemergence, 0 is no effect, 100 is complete control, read-out: Barnyardgrass plant response rating) is reported as 70%, the pest or weed control at 1000 g/ha ([1]; pre-emergence, Preemergence, 0 no effect, 100 complete control, read-out: Plant response rating, Barnyardgrass) is reported as 100% and the plant injury at 1000 g/ha ([2]; Zea mays, post-emergence, 240 h, Postemergence, 0 is no effect, 100 is complete control, read-out: Corn plant response rating) is reported as 0%. The Corn plant response rating (crop injury, 0 = no effect, 100 = complete kill) at 1000 g/ha ([2]; Zea mays, pre-emergence, 240 h, Preemergence, 0 no effect, 100 complete control) was 30%, the pest or weed control at 1000 g/ha ([3]; Digitaria sanguinalis, post-emergence, 240 h, Postemergence, 0 is no effect, 100 is complete control, read-out: Crabgrass, Large plant response rating) was 50% and the pest or weed control at 1000 g/ha ([4]; post-emergence, Postemergence, 0 is no effect, 100 is complete control, read-out: Foxtail, Giant plant response rating) was 70%. The pest or weed control at 1000 g/ha ([4]; pre-emergence, Preemergence, 0 no effect, 100 complete control, read-out: Plant response rating, Foxtail, Giant) was 50%, the pest or weed control at 1000 g/ha ([5]; post-emergence, Postemergence, 0 is no effect, 100 is complete control, read-out: Morningglory plant response rating) was 40% and the pest or weed control at 1000 g/ha ([5]; pre-emergence, Preemergence, 0 no effect, 100 complete control, read-out: Plant response rating, Morningglory) was 10%. It also gave a pest or weed control at 1000 g/ha ([6]; Amaranthus retroflexus, post-emergence, 240 h, Postemergence, 0 is no effect, 100 is complete control, read-out: Pigweed plant response rating) of 50%, a pest or weed control at 1000 g/ha ([7]; Abutilon theophrasti, pre-emergence, 240 h, read-out: Plant response rating, Velvetleaf) of 20% and a plant injury at 1000 g/ha ([8]; post-emergence, Postemergence, 0 is no effect, 100 is complete control, read-out: Wheat plant response rating) of 20%. The plant injury at 1000 g/ha ([8]; pre-emergence, Preemergence, 0 no effect, 100 complete control, read-out: Plant response rating, Wheat) was 0%.
